{
  "source": "ChEMBL document CHEMBL1147118",
  "about": "“Efficacy of oseltamivir therapy in ferrets inoculated with different clades of H5N1 influenza virus” (2007)",
  "key": {"Influenza A virus [1]": {"tested_on": "Influenza A virus", "test": "Antiviral activity against 10^2 EID50 influenza A/Vietnam/1203/04 H5N1 virus inoculated ferrets assessed as inhibition of viral replication in lungs at 5 mg/kg after 4 hrs of inoculum for 5 days", "type": "functional, organism-based", "parameters": "dose 5 mg/kg"}, "Influenza A virus [2]": {"tested_on": "Influenza A virus", "test": "Antiviral activity against 10^2 EID50 influenza A/Vietnam/1203/04 H5N1 virus inoculated ferrets assessed as increase in temperature at 25 mg/kg after 24 hrs of inoculum for 5 days", "type": "functional"}, "Influenza A virus [3]": {"tested_on": "Influenza A virus", "test": "Antiviral activity against 10^2 EID50 influenza A/Vietnam/1203/04 H5N1 virus inoculated ferrets assessed as inhibition of virus spread in brain at 5 mg/kg after 4 hrs of inoculum for 5days", "type": "functional, organism-based", "parameters": "dose 5 mg/kg"}, "Influenza A virus [4]": {"tested_on": "Influenza A virus", "test": "Survival of 10^6 EID50 influenza A/turkey/15/06 H5N1 virus inoculated ferrets at 10 mg/kg twice daily after 24 hrs inoculum for 5 days", "type": "functional, organism-based", "parameters": "dose 10 mg/kg", "settings": "Influenza A virus (A/Turkey/15/2006(H5N1))"}, "Influenza A virus [5]": {"tested_on": "Influenza A virus", "test": "Antiviral activity against 10^2 EID50 influenza A/Vietnam/1203/04 H5N1 virus inoculated ferrets assessed as weight loss at 25 mg/kg after 24 hrs of inoculum for 5 days", "type": "functional"}, "Influenza A virus [6]": {"tested_on": "Influenza A virus", "test": "Inhibition of influenza A/Vietnam/1203/04 virus replication in ferrets upper respiratory tract at 10 mg/kg twice daily after 24 hrs of inoculum for 5 days", "type": "functional, organism-based", "parameters": "dose 10 mg/kg"}, "Influenza A virus [7]": {"tested_on": "Influenza A virus", "test": "Antiviral activity against 10^6 EID50 influenza A/turkey/15/06 H5N1 virus inoculated ferrets assessed as viral titer in brain at 10 mg/kg after 24 hrs of inoculum for 5 days", "type": "functional, Influenza A virus (A/Turkey/15/2006(H5N1))"}, "Influenza A virus [8]": {"tested_on": "Influenza A virus", "test": "Antiviral activity against 10^2 EID50 influenza A/Vietnam/1203/04 H5N1 virus inoculated ferrets assessed as inhibition of viral replication in small intestine at 5 mg/kg after 4 hrs of inoculum for 5 days", "type": "functional, organism-based", "parameters": "dose 5 mg/kg"}, "Influenza A virus [9]": {"tested_on": "Influenza A virus", "test": "Inhibition of 10^2 EID50 influenza A/Vietnam/1203/04 H5N1 virus replication in ferrets liver at 10 mg/kg after 24 hrs of inoculum for 5 days", "type": "functional, organism-based", "parameters": "dose 10 mg/kg"}, "Influenza A virus [10]": {"tested_on": "Influenza A virus", "test": "Antiviral activity against 10^6 EID50 influenza A/turkey/15/06 H5N1 virus inoculated ferrets assessed as increase in temperature at 10 mg/kg twice daily after 24 hrs inoculum for 5 days", "type": "functional, Influenza A virus (A/Turkey/15/2006(H5N1))"}, "Influenza A virus [11]": {"tested_on": "Influenza A virus", "test": "Antiviral activity against 10^2 EID50 influenza A/Vietnam/1203/04 H5N1 virus inoculated ferrets assessed as day of death at 5 mg/kg after 4 hrs of inoculum for 5 days", "type": "functional"}, "Influenza A virus [12]": {"tested_on": "Influenza A virus", "test": "Antiviral activity against 10 EID50 influenza A/Vietnam/1203/04 H5N1 virus inoculated ferrets assessed as day of death at 5 mg/kg after 4 hrs of inoculum for 5 days", "type": "functional"}, "Influenza A virus [13]": {"tested_on": "Influenza A virus", "test": "Antiviral activity against 10^2 EID50 influenza A/Vietnam/1203/04 H5N1 virus inoculated ferrets assessed as weight loss at 10 mg/kg after 24 hrs of inoculum for 5 days", "type": "functional"}, "Influenza A virus [14]": {"tested_on": "Influenza A virus", "test": "Antiviral activity against 10^2 EID50 influenza A/Vietnam/1203/04 H5N1 virus inoculated ferrets assessed as day of death at 25 mg/kg after 24 hrs of inoculum for 5 days", "type": "functional"}, "Influenza A virus [15]": {"tested_on": "Influenza A virus", "test": "Inhibition of 10^2 EID50 influenza A/Vietnam/1203/04 H5N1 virus replication in ferrets spleen at 10 mg/kg after 24 hrs of inoculum for 5 days", "type": "functional, organism-based", "parameters": "dose 10 mg/kg"}, "Influenza A virus [16]": {"tested_on": "Influenza A virus", "test": "Antiviral activity against 10^2 EID50 influenza A/Vietnam/1203/04 H5N1 virus inoculated ferrets assessed as inhibition of virus spread in spleen at 5 mg/kg after 4 hrs of inoculum for 5 days", "type": "functional, organism-based", "parameters": "dose 5 mg/kg"}, "Influenza A virus [17]": {"tested_on": "Influenza A virus", "test": "Antiviral activity against 10^2 EID50 influenza A/Vietnam/1203/04 H5N1 virus inoculated ferrets assessed as increase in temperature at 5 mg/kg after 4 hrs of inoculum for 5 days", "type": "functional"}, "Influenza A virus [18]": {"tested_on": "Influenza A virus", "test": "Survival of 10^2 EID50 influenza A/Vietnam/1203/04 H5N1 virus inoculated ferrets at 5 mg/kg after 4 hrs of inoculum for 5 days", "type": "functional, organism-based", "parameters": "dose 5 mg/kg"}, "Influenza A virus [19]": {"tested_on": "Influenza A virus", "test": "Antiviral activity against 10^2 EID50 influenza A/Vietnam/1203/04 H5N1 virus inoculated ferrets assessed as day of death at 10 mg/kg after 24 hrs of inoculum for 5 days", "type": "functional"}, "Influenza A virus [20]": {"tested_on": "Influenza A virus", "test": "Inhibition of 10^2 EID50 influenza A/Vietnam/1203/04 H5N1 virus replication in ferrets brain at 25 mg/kg after 24 hrs of inoculum for 5 days", "type": "functional, organism-based", "parameters": "dose 25 mg/kg"}, "Influenza A virus [21]": {"tested_on": "Influenza A virus", "test": "Antiviral activity against 10^2 EID50 influenza A/Vietnam/1203/04 H5N1 virus inoculated ferrets assessed as increase in temperature at 10 mg/kg after 24 hrs of inoculum for 5 days", "type": "functional"}, "Influenza A virus [22]": {"tested_on": "Influenza A virus", "test": "Inhibition of 10^2 EID50 influenza A/Vietnam/1203/04 H5N1 virus replication in ferrets lungs at 25 mg/kg after 24 hrs of inoculum for 5 days", "type": "functional, organism-based", "parameters": "dose 25 mg/kg"}, "Influenza A virus [23]": {"tested_on": "Influenza A virus", "test": "Survival of 10 EID50 influenza A/Vietnam/1203/04 H5N1 virus inoculated ferrets at 5 mg/kg after 4 hrs of inoculum for 5 days", "type": "functional, organism-based", "parameters": "dose 5 mg/kg"}, "Influenza A virus [24]": {"tested_on": "Influenza A virus", "test": "Survival of 10^2 EID50 influenza A/Vietnam/1203/04 H5N1 virus inoculated ferrets at 25 mg/kg after 24 hrs of inoculum for 5 days", "type": "functional, organism-based", "parameters": "dose 25 mg/kg"}, "Influenza A virus [25]": {"tested_on": "Influenza A virus", "test": "Inhibition of 10^2 EID50 influenza A/Vietnam/1203/04 H5N1 virus replication in ferrets spleen at 25 mg/kg after 24 hrs of inoculum for 5 days", "type": "functional, organism-based", "parameters": "dose 25 mg/kg"}, "Influenza A virus [26]": {"tested_on": "Influenza A virus", "test": "Inhibition of 10^2 EID50 influenza A/Vietnam/1203/04 H5N1 virus replication in ferrets lungs at 10 mg/kg after 24 hrs of inoculum for 5 days", "type": "functional, organism-based", "parameters": "dose 10 mg/kg"}, "Influenza A virus [27]": {"tested_on": "Influenza A virus", "test": "Survival of 10^2 EID50 influenza A/Vietnam/1203/04 H5N1 virus inoculated ferrets at 10 mg/kg after 24 hrs of inoculum for 5 days", "type": "functional, organism-based", "parameters": "dose 10 mg/kg"}, "Influenza A virus [28]": {"tested_on": "Influenza A virus", "test": "Antiviral activity against 10 EID50 influenza A/Vietnam/1203/04 H5N1 virus inoculated ferrets assessed as weight loss at 5 mg/kg after 4 hrs of inoculum for 5 days", "type": "functional"}, "Influenza A virus [29]": {"tested_on": "Influenza A virus", "test": "Antiviral activity against 10^6 EID50 influenza A/turkey/15/06 H5N1 virus inoculated ferrets assessed as weight loss at 10 mg/kg twice daily after 24 hrs inoculum for 5 days", "type": "functional, Influenza A virus (A/Turkey/15/2006(H5N1))"}, "Influenza A virus [30]": {"tested_on": "Influenza A virus", "test": "Antiviral activity against 10^6 EID50 influenza A/turkey/15/06 H5N1 virus inoculated ferrets assessed as viral titer in lungs at 10 mg/kg after 24 hrs of inoculum for 5 days", "type": "functional, Influenza A virus (A/Turkey/15/2006(H5N1))"}, "Influenza A virus [31]": {"tested_on": "Influenza A virus", "test": "Inhibition of 10^2 EID50 influenza A/Vietnam/1203/04 H5N1 virus replication in ferrets liver at 25 mg/kg after 24 hrs of inoculum for 5 days", "type": "functional, organism-based", "parameters": "dose 25 mg/kg"}, "Influenza A virus [32]": {"tested_on": "Influenza A virus", "test": "Antiviral activity against 10 EID50 influenza A/Vietnam/1203/04 H5N1 virus inoculated ferrets assessed as increase in temperature at 5 mg/kg after 4 hrs of inoculum for 5 days", "type": "functional"}, "Influenza A virus [33]": {"tested_on": "Influenza A virus", "test": "Antiviral activity against 10^2 EID50 influenza A/Vietnam/1203/04 H5N1 virus inoculated ferrets assessed as inhibition of virus spread in liver at 5 mg/kg after 4 hrs of inoculum for 5 days", "type": "functional, organism-based", "parameters": "dose 5 mg/kg"}, "Influenza A virus [34]": {"tested_on": "Influenza A virus", "test": "Antiviral activity against 10^2 EID50 influenza A/Vietnam/1203/04 H5N1 virus inoculated ferrets assessed as maximal change in weight loss at 5 mg/kg after 4 hrs of inoculum for 5 days", "type": "functional"}},
  "note": "Active and inactive are the calls of the source. No cut-off for these calls is given here.",
  "data": [
    {"molecule": "CCOC(=O)C1=C[C@@H](OC(CC)CC)[C@H](NC(C)=O)[C@@H](N)C1", "note": "[OSELTAMIVIR]", "values": [
      {"measurement": "Activity", "setting": "Influenza A virus [1]", "value": "Active"},
      {"measurement": "Activity", "setting": "Influenza A virus [2]", "value": 6, "unit": "%"},
      {"measurement": "Activity", "setting": "Influenza A virus [3]", "value": "inactive"},
      {"measurement": "Activity", "setting": "Influenza A virus [4]", "value": "Active"},
      {"measurement": "Activity", "setting": "Influenza A virus [5]", "value": 13.4, "unit": "%"},
      {"measurement": "Activity", "setting": "Influenza A virus [6]", "value": "inactive"},
      {"measurement": "log10EID50/g", "setting": "Influenza A virus [7]", "value": "<0.75"},
      {"measurement": "Activity", "setting": "Influenza A virus [8]", "value": "Active"},
      {"measurement": "Activity", "setting": "Influenza A virus [9]", "value": "Active"},
      {"measurement": "Activity", "setting": "Influenza A virus [10]", "value": 6, "unit": "%"},
      {"measurement": "Activity", "setting": "Influenza A virus [11]", "value": 21, "unit": "days"},
      {"measurement": "Activity", "setting": "Influenza A virus [12]", "value": ">21", "unit": "days"},
      {"measurement": "Activity", "setting": "Influenza A virus [13]", "value": 22.1, "unit": "%"},
      {"measurement": "Activity", "setting": "Influenza A virus [14]", "value": ">21", "unit": "days"},
      {"measurement": "Activity", "setting": "Influenza A virus [15]", "value": "Active"},
      {"measurement": "Activity", "setting": "Influenza A virus [16]", "value": "inactive"},
      {"measurement": "Activity", "setting": "Influenza A virus [17]", "value": 3.4, "unit": "%"},
      {"measurement": "Activity", "setting": "Influenza A virus [18]", "value": "Active"},
      {"measurement": "Activity", "setting": "Influenza A virus [19]", "value": 7.3, "unit": "days"},
      {"measurement": "Activity", "setting": "Influenza A virus [20]", "value": "inactive"},
      {"measurement": "Activity", "setting": "Influenza A virus [21]", "value": 5.7, "unit": "%"},
      {"measurement": "Activity", "setting": "Influenza A virus [22]", "value": "Active"},
      {"measurement": "Activity", "setting": "Influenza A virus [23]", "value": "Active"},
      {"measurement": "Activity", "setting": "Influenza A virus [24]", "value": "Active"},
      {"measurement": "Activity", "setting": "Influenza A virus [25]", "value": "Active"},
      {"measurement": "Activity", "setting": "Influenza A virus [26]", "value": "Active"},
      {"measurement": "Activity", "setting": "Influenza A virus [27]", "value": "inactive"},
      {"measurement": "Activity", "setting": "Influenza A virus [28]", "value": 8.8, "unit": "%"},
      {"measurement": "Activity", "setting": "Influenza A virus [29]", "value": 17.9, "unit": "%"},
      {"measurement": "log10EID50/g", "setting": "Influenza A virus [30]", "value": "<0.75"},
      {"measurement": "Activity", "setting": "Influenza A virus [31]", "value": "Active"},
      {"measurement": "Activity", "setting": "Influenza A virus [32]", "value": 5, "unit": "%"},
      {"measurement": "Activity", "setting": "Influenza A virus [33]", "value": "inactive"},
      {"measurement": "Activity", "setting": "Influenza A virus [34]", "value": 20.4, "unit": "%"}
    ]}
  ]
}
